Assay results taken from patent US20230049917A1, “Pharmaceutical Composition of CASR Modulators and Methods and Uses Thereof” (Lupin Limited, priority 2019, published 2023).

Tests used:
[1] = biological target: cytochrome P450 2D6 (Homo sapiens, UniProt P10635); assay: Cytochrome P450 2D6 liability; format: in vitro ADME
[2] = Pharmacokinetic analysis after oral administration of the formulation to rats; format: in vivo; conditions: male, Sprague Dawley, rat, in vivo, po, 5 mg/kg
Protocol: Male Sprague Dawley Rats (weight 225±25 gm; aged 8 to 10 weeks) were administered orally with the formulation. Each of the tested compounds was dosed at 5 mg/kg at a dose volume of 1 mL/kg. Blood samples were collected at time points 0.25, 0.5, 1, 2, 4, 6, 8 and 24 hours and analyzed the plasma concentrations of administered compound and calculated PK parameters. The plasma concentrations of the tested compounds were measured by liquid chromatography with tandem mass spectrometry (LCMS-MS) using […] extraction method. The plasma concentration-time data was subjected to Non-Compartmental Analysis using Phoenix WinNonlin® (Version 5.3) software to assess the pharmacokinetic parameters. Peak plasma concentrations (Cmax) and time for the peak plasma concentrations (Tmax) were the observed values. The area under the concentration time curve (AUC) was calculated by linear trapezoidal rule.

[3] = Phase 2 Main Study: phosphate change from baseline; format: in vivo, human
Protocol: For PK-PD assessments, blood samples for PK assessments were collected at scheduled time points (Screening Period; Day 1 (Pre-dose and post-dose); Day 2; Day 8 EOT (Pre-dose and post-dose); Day 9; Day 10; and Day 15+/−3 days (Follow-up visit)) in the PK-PD study. The PD profiling was done in parallel to the PK profiling in the PK-PD study. Blood samples (approximately 1×4 mL) for PK assessments were collected by venipuncture or cannulation at the selected time points into tubes containing dipotassium ethylenediaminetetraacetic acid (K2EDTA) anti-coagulant. The collected blood sample were kept on ice until centrifugation and later centrifuged at 4 °C at 5000 rpm for 10 minutes and the separated plasma collected in 2 tubes/aliquots. The plasma samples were stored at −20 °C or lower at the clinical centre until they were shipped for analysis. Blood samples (approximately 1×8 mL) for PD assessments were collected in PK-PD study and Main Study at selected time points The Main Study's selected time points were Screening Period; Day 1; Day 8+/−3 days; Day 15+/−3 days; Day 30+/−3 days; Day 60+/−3 days; and Day 90+/−3 days (EOT/Early Discontinuations). Blood samples (approximately 1×5 mL) for exploratory PD assessments for PK-PD study and Main Study were collected at selected time points.
Change from baseline to all measured and relevant time points was calculated. The baseline value for this study was the higher of the 2 values obtained during screening period for serum iPTH concentration, corrected total serum calcium and phosphorous. The baseline value for all other parameters was the last valid and planned visit value prior to first dose of IP in the study. For continuous data, summary statistics included the number, arithmetic mean, standard deviation (SD), median, minimum and maximum. For categorical data, frequency and percentage were presented.

Sequence of cytochrome P450 2D6 (P10635 whole entry, species assumed): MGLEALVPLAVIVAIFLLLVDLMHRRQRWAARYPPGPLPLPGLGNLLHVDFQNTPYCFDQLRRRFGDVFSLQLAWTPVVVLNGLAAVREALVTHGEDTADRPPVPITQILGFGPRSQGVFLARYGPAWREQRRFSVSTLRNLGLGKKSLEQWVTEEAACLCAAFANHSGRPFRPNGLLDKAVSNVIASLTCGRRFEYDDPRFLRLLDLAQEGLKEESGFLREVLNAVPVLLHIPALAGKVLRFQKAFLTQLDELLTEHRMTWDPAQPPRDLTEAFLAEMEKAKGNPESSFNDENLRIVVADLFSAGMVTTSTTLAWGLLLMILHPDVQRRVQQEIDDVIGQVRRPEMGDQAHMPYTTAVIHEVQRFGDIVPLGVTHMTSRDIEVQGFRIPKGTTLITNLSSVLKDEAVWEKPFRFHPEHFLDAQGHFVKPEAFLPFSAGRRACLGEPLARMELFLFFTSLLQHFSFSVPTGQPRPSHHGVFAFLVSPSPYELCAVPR

cytochrome P450 2D6 liabilities [1]: devoid | AUC(0-t) [2]: 15 ± 4 µM·h | Cmax [2]: 3.4 ± 1 µM | Tmax [2]: 0.5 to 2 h | phosphorous levels due to administration over a period of 90 days ([3]; CKD patients not on dialysis): no increase | phosphorous levels due to administration over a period of 90 days ([3]; CKD patients on dialysis): no increase | difference in mean percentage change in phosphate from baseline at the end of 90 days versus Placebo ([3]; patients not on dialysis, 10 mg and 5 mg arms): not significant | difference in mean percentage change in phosphate from baseline at the end of 90 days versus Placebo ([3]; patients on dialysis, 10 mg, 20 mg and 25 mg arms): not significant
SMILES: Cc1ccc([C@@H]2C[C@H](CN[C@H](C)c3cccc4ccccc34)Oc3ccccc32)cc1C(=O)O.Cl [Compound 3, 2-methyl-5-((2R,4S)-2-((((R)-1-(naphthalen-1-yl)ethyl)amino)methyl)chroman-4-yl)benzoic acid hydrochloride]
